Source: patent publication US12655116B2, “Substituted isophthalic acid diamides” (Bayer Aktiengesellschaft, priority 2020, dated 2026)

Key:
ABUTH [1] = experiment: Pre-emergence herbicidal action against ABUTH; assay type: in vivo, Abutilon theophrasti; conditions: 80 g/ha, scored visually after 3 weeks vs untreated controls (100% = plants have died, 0% = like control plants)
Method in brief: (§1)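 Visual rating at 3 weeks vs untreated pots; 0–100% scale, 100% = plants died. Treatment: aqueous WP/EC spray onto covering soil, 600–800 l/ha, 0.2% wetter, seeds in sandy loam.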

AMARE [2] = experiment: Pre-emergence herbicidal action against AMARE; assay type: in vivo, Amaranthus retroflexus
Method in brief: as §1

ECHCG [3] = experiment: Pre-emergence herbicidal action against ECHCG; assay type: in vivo, Echinochloa crus-galli; conditions: 80 g/ha
Method in brief: as §1

MATIN = experiment: Pre-emergence herbicidal action against MATIN; assay type: in vivo, Matricaria inodora; conditions: dosage 80 g/ha
Method in brief: as §1

POLCO = experiment: Pre-emergence herbicidal action against POLCO; assay type: in vivo, Polygonum convolvulus
From the text: Seeds of monocotyledonous and dicotyledonous weed plants and crop plants are laid out in sandy loam soil in wood-fiber pots and covered with soil. The compounds of the invention, formulated in the form of wettable powders (WP) or as emulsion concentrates (EC), are then applied to the surface of the covering soil in the form of an aqueous suspension or emulsion at a water application rate equivalent to 600 to 800 l/ha, with addition of 0.2% wetting agent. After the treatment, the pots are placed in a greenhouse and kept under good growth conditions for the trial plants. The damage to the test plants is scored visually after a test period of 3 weeks by comparison with untreated controls (herbicidal activity in percent (%): 100% activity=the plants have died, 0% activity=like control plants). […] The tables below illustrate, in an illustrative manner, the post-emergence herbicidal action of the compounds of the invention, the herbicidal activity being stated in percent.

SETVI [4] = experiment: Pre-emergence herbicidal action against SETVI; assay type: in vivo, Setaria viridis; conditions: dosage 80 g/ha
Method in brief: as §1

VIOTR [5] = experiment: Pre-emergence herbicidal action against VIOTR; assay type: in vivo, Viola tricolor
Method in brief: as §1

DIGSA = experiment: Pre-emergence herbicidal action against DIGSA; assay type: in vivo, Digitaria sanguinalis
Method in brief: as §1

ABUTH [6] = experiment: Post-emergence herbicidal action against ABUTH; assay type: in vivo, Abutilon theophrasti; conditions: dosage 20 g/ha, visual assessment about 3 weeks after treatment vs untreated controls
Method in brief: (§2)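 Greenhouse pot plants in sandy loam were sprayed at the one-leaf stage, 2 to 3 weeks after sowing, with WP or EC formulations as aqueous suspension or emulsion (600 to 800 l/ha water, 0.2% wetting agent). About 3 weeks later, damage was scored visually against untreated controls as % action (100% = dead, 0% = like control).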

AMARE [7] = experiment: Post-emergence herbicidal action against AMARE; assay type: in vivo, Amaranthus retroflexus; conditions: 20 g/ha, visual assessment about 3 weeks after treatment, 100% = plants have died, 0% = like control plants
Method in brief: as §2

ECHCG [8] = experiment: Post-emergence herbicidal action against ECHCG; assay type: in vivo, Echinochloa crus-galli
Method in brief: as §2

SETVI [9] = experiment: Post-emergence herbicidal action against SETVI; assay type: in vivo, Setaria viridis; conditions: dosage 20 g/ha
Method in brief: as §2

VERPE = experiment: Pre-emergence herbicidal action against VERPE; assay type: in vivo, Veronica persica; conditions: dosage 80 g/ha
Method in brief: as §1

VIOTR [10] = experiment: Post-emergence herbicidal action against VIOTR; assay type: in vivo, Viola tricolor; conditions: Viola tricolor, 504 h, 20 g/ha
Method in brief: as §2

PHBPU = experiment: Post-emergence herbicidal action against PHBPU; assay type: in vivo, Pharbitis purpurea; conditions: dosage 20 g/ha
Method in brief: as §2

[11] = 20 g/ha, scored visually after 3 weeks vs untreated controls, 100% = plants have died, 0% = like control plants
[12] = 80 g/ha, scored visually after 3 weeks vs untreated controls (100% = plants have died, 0% = like control plants)

## Cc1nnc(NC(=O)c2ccc(C(F)F)c(C(=O)NC3CC3)c2Br)o1 [Example 6-166]
ABUTH [1]
  Pre-emergence action against ABUTH (herbicidal activity): 100%
AMARE [2]; [11]
  Pre-emergence action against AMARE in %: 90%
AMARE [2]; [12]
  Pre-emergence action against AMARE in %: 100%
ECHCG [3]
  Pre-emergence action against ECHCG in %: 80%
MATIN
  Pre-emergence action against MATIN in %: 100%
POLCO; dosage 80 g/ha
  Pre-emergence action against POLCO in %: 80%
SETVI [4]
  Pre-emergence action against SETVI in %: 100%
VIOTR [5]; dosage 80 g/ha
  Pre-emergence action against VIOTR in %: 100%
DIGSA; dosage 20 g/ha
  Pre-emergence action against DIGSA in %: 80%
DIGSA; dosage 80 g/ha
  Pre-emergence action against DIGSA in %: 100%
ABUTH [6]
  Post-emergence action against ABUTH in %: 80%
AMARE [7]
  Post-emergence action at 20 g/ha against AMARE in %: 90%
ECHCG [8]; dosage 5 g/ha
  Post-emergence action against ECHCG in %: 80%
ECHCG [8]; dosage 20 g/ha
  Post-emergence action against ECHCG in %: 90%
SETVI [9]
  Post-emergence action against SETVI in %: 100%

## CC(=O)NC(=O)c1c(C(F)(F)F)ccc(C(=O)Nc2nnnn2C)c1Cl [Example 1-337]
ABUTH [1]; Abutilon theophrasti, 504 h
  pest or weed control at 80 g/ha: 100%
AMARE [2]; Amaranthus retroflexus, 504 h, 20 g/ha, scored visually after 3 weeks vs untreated controls, 100% = plants have died, 0% = like control plants
  pest or weed control at 20 g/ha: 90%
AMARE [2]; Amaranthus retroflexus, 504 h, 80 g/ha, scored visually after 3 weeks vs untreated controls, 100% = plants have died, 0% = like control plants
  pest or weed control at 80 g/ha: 100%
POLCO; Fallopia convolvulus, 504 h, dosage 20 g/ha
  pest or weed control at 20 g/ha: 80%
POLCO; Fallopia convolvulus, 504 h, dosage 80 g/ha
  pest or weed control at 80 g/ha: 80%
SETVI [4]; Setaria viridis, 504 h
  pest or weed control at 80 g/ha: 90%
VERPE; Veronica persica, 504 h
  pest or weed control at 80 g/ha: 90%
VIOTR [5]; Viola tricolor, 504 h, dosage 20 g/ha
  pest or weed control at 20 g/ha: 80%
VIOTR [5]; Viola tricolor, 504 h, dosage 80 g/ha
  pest or weed control at 80 g/ha: 80%
DIGSA; Digitaria sanguinalis, 504 h, dosage 80 g/ha
  pest or weed control at 80 g/ha: 100%
ABUTH [6]; Abutilon theophrasti, 504 h
  pest or weed control at 20 g/ha: 80%
VIOTR [10]
  pest or weed control at 20 g/ha: 80%

## CCn1nnnc1NC(=O)c1ccc(C(F)(F)F)c(C(=O)NCc2cccs2)c1Cl [Example 2-144]
AMARE [2]; [11]
  Pre-emergence action against AMARE in %: 80%
AMARE [2]; [12]
  Pre-emergence action against AMARE in %: 100%
ECHCG [3]
  Pre-emergence action against ECHCG in %: 80%
MATIN
  Pre-emergence action against MATIN in %: 90%
POLCO; dosage 20 g/ha
  Pre-emergence action against POLCO in %: 80%
POLCO; dosage 80 g/ha
  Pre-emergence action against POLCO in %: 90%
VERPE
  Pre-emergence action against VERPE in %: 100%
VIOTR [5]; dosage 80 g/ha
  Pre-emergence action against VIOTR in %: 90%
DIGSA; dosage 80 g/ha
  Pre-emergence action against DIGSA in %: 100%
PHBPU
  Post-emergence action against PHBPU in %: 80%

## CCn1nnnc1NC(=O)c1ccc(C(F)(F)F)c(C(=O)NCCSC)c1C [Example 2-35]
AMARE [2]; [12]
  Pre-emergence action against AMARE in %: 90%
MATIN
  Pre-emergence action against MATIN in %: 80%
POLCO; dosage 80 g/ha
  Pre-emergence action against POLCO in %: 80%
